We go through five molecules from patent US20020128189A1, “Ubiquitination of the transcription factor E2A” (President and Fellows of Harvard College, a Massachusetts …, priority 1996, published 2002).

Square brackets hold non-standard residues; d marks the D form. Peptide text beside a SMILES is read from it. * marks the point of attachment. Nle = CCCC[C@H](N)C(=O)O; Nva = CCC[C@H](N)C(=O)O; Cbz = O=C(OCc1ccccc1)*

One assay concerns ovalbumin degradation. Particulars: Rock et al., cited from earlier work; for IC50: read-out: concentration causing 50% inhibition of ovalbumin degradation.
For the next assay, the target named is T1, 20S proteasome (Homo sapiens, UniProt P28074).
T1 sequence (P28074 60-263): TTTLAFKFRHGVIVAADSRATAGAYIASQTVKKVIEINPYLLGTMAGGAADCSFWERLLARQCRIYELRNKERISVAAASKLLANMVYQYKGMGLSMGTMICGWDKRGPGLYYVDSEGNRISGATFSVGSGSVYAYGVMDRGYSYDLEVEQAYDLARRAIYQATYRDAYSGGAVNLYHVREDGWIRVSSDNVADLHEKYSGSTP
Particulars: cited from earlier work.

The subject of another assay is human E12. Kind of assay: Pulse-chase analysis of E12 degradation in COS7 cells treated with proteasome/protease inhibitors. The assay is classed as cell-based. Particulars: 60 min pulse, 3 hour chase. How it is done: FIG. 2 is a bar graph representing the relative expression of E12 after treatment with the proteasome inhibitor MG132 and the protease inhibitor leupeptin, as follows. COS cells were electroporated with a human E12 expression plasmid. After electroporation (48 hours), cells were treated with either DMSO (a diluent for MG132), 50 μM MG132, or 1 μg/ml leupeptin for 1 hour. The cells were then pulse-chased with [^35S] methionine and the cell extracts were immunoprecipitated with anti-E12 antibody and analyzed by SDS-PAGE fluorography. Inhibitors were present throughout the entire pulse-chase period.
Cells in 100 mm dishes (either transfected cells 48 hours after transfection or stable cell lines at about 80% confluence) were starved in Met-free DMEM (supplemented with 5% dialyzed fetal bovine serum) for 60 minutes at 37° C. Cells were then pulse-labeled at 37° C. with 100 μCi/ml [^35S]met for 60 minutes at 37° C. Cells were chased in warm DMEM supplemented with 100 μg/ml Met. For the proteasome inhibitor experiment, the inhibitor MG132 […] was added 1 hour before pulse-chase and was present throughout the entire period. […] Incorporation of ^35S into the total protein pool was determined by trichloroacetic acid (TCA) precipitation. […] The bands were measured using a PhosphorImager (Molecular Dynamics). […]

For assay [1], the system named is p27 inhibitor of cyclin-dependent kinases. Particulars: cited from earlier work.
The subject of assay [2] is NF-kB precursor protein p105. Particulars: cited from earlier work.

In the case of `CCC[C@@H](C=O)NC(=O)[C@H](CC(C)C)NC(=O)[C@H](CC(C)C)NC(=O)OCc1ccccc1` [MG115, N-carbobenzoxyl-L-leucinyl-L-leucinyl-L-norvalinal] (Cbz-Leu-Leu-[Nva]-aldehyde), in the assay on ovalbumin degradation, the “potency relative to LLnL (ovalbumin proteolysis)” value was “approximately 5 fold” and the IC50 was 0.4 µM. The “inhibition of the chymotryptic site on the 20S proteasome” value (“inhibition of the chymotryptic site” below) on 20S proteasome is listed as “potent inhibitors”.

For the molecule `CC(C)C[C@@H](C=O)NC(=O)[C@H](CC(C)C)NC(=O)[C@H](CC(C)C)NC(=O)OCc1ccccc1` [MG132] (Cbz-Leu-Leu-Leu-aldehyde), in the assay on human E12 (50 μM MG132 added 1 hour before and present throughout), the “E12 protein stability (effect on E12 degradation)” value was “stabilized”. Also, at 20S proteasome, the “inhibition of the chymotryptic site” value is “potent inhibitors”. Moreover, in assay [1], the “effect on degradation of the p27 inhibitor of cyclin-dependent kinases” value was “inhibit the degradation”. For the same molecule, the “effect on processing of the NF-kB precursor protein p105” value in assay [2] is “block the processing”.

As for `CSCC[C@@H](C=O)NC(=O)[C@H](CC(C)C)NC(=O)[C@H](CC(C)C)NC(C)=O` [LLM, N-acetyl-L-leucinyl-L-leucinyl-methional] (Ac-Leu-Leu-Met-aldehyde), in the assay with ovalbumin degradation, the IC50 is more than 100 µM.

`CCCC[C@@H](C=O)NC(=O)[C@H](CC(C)C)NC(=O)[C@H](CC(C)C)NC(C)=O` [MG101] (Ac-Leu-Leu-[Nle]-aldehyde): the “inhibition of the chymotryptic site” value on 20S proteasome was “potent inhibitors”. Besides, the “effect on degradation of the p27 inhibitor of cyclin-dependent kinases” value in assay [1] is “inhibit the degradation”. The “effect on processing of the NF-kB precursor protein p105” value in assay [2] is listed as “block the processing”.

`CC(=O)N[C@@H](CC(C)C)C(=O)N[C@@H](CC(C)C)C(=O)N[C@H](C=O)CCCNC(=N)N` [leupeptin]: in the assay on human E12 (leupeptin 1 μg/ml added 1 hour before and present throughout), the “E12 protein stability (effect on E12 degradation)” value is “no effect”.
